Experimental data taken from patent publication US10220034B2, “Hepatitis B viral assembly effectors” (Indiana University Research and Technology Corp., priority 2013, dated 2019).

Key:
[1] = system: HBV Cp; experiment: Capsid assembly assay (fluorescence quenching); conditions: 10 μM compound, control reactions with no drug show 25±5% assembly
[2] = system: AD38 cells; experiment: Activity of test compounds on viral production from AD38 cells (qPCR viral load); assay type: cell-based, HBV; set-up: key: (+) depicting meets criteria for significant activity; (++) depicting exceeds criteria; conditions: 5 days, supernatant qPCR
Experimental: AD38 cells grown in a 175 cm flash with Growth Medium (DMEM/F12 (1:1) (cat#SH30023.01, Hyclone, 1× Pen/step (cat#: 30-002-CL, Mediatech, Inc), 10% FBS (cat#: 101, Tissue Culture Biologics), 250 μg/mL G418 (cat#: 30-234-CR, Mediatech, Inc), 1 μg/mL Tetracycline (cat#: T3325, Teknova)) were detached with 0.25% trypsin. Tetracycline-free treatment medium (15 mL DMEM/F12 (1:1) (cat#SH30023.01, Hyclone, 1× Pen/step (cat#: 30-002-CL, Mediatech, Inc), with 2% FBS, Tet-system approved (cat#: 631106, Clontech) were then added to mix and spun at 1300 rpm for 5 min. Pelleted cells were then re-suspended/washed with 50 mL of 1×PBS 2 times and 10 mL treatment medium one time. AD38 cells were then re-suspended with 10 mL of treatment medium and counted. Wells of a collagen coated 96-well NUNC microtiter plate were seeded at 50,000/well in 180 μL of treatment medium, and 20 μL of either 10% DMSO (Control) or a 10× solution of test compound in 10% DMSO in treatment media was added for as final compound concentration 1, 3, or 10 μM (1.0% final [DMSO]) and plates were incubated for 5 days at 37° C.
Subsequently viral load production was assayed by quantitative PCR of the core sequence. Briefly, 5 μL of clarified supernatant was added to a PCR reaction mixture that contained forward primers HBV-f 5′-[…]-3′, Reverse primers HBV-r 5′-[…]-3′ and Fluorescent TaqMan™ Probes HBV-probe 5′-FAM/[…]/ZEN/[…]/31ABkFQ-3′ in Quanta Biosciences PerfeCTa® qPCR Toughmix®, and was subsequently on an Applied Biosystems VIIA7 in a final volume of 20 μL. The PCR mixture was incubated at 45° C. for 5 minutes, then 95° C. for 10 min, followed by 40 cycles of 10 seconds at 95° C. and 20 seconds at 60° C. Viral load was quantitated against known standards by using ViiA™ 7 Software. Viral load in the supernatant from wells with treated cells were compared against viral load in supernatant from DMSO control wells (≥3 per plate). In Table 4, concentrations of test compound causing reductions in viral load greater than at least 3 standard deviations from the DMSO controls across all plates were considered active, with (+) depicting meets criteria for significant activity, and (++) depicting exceeds criteria.

Row | Compound | % Capsid formation at 24 h (10 μM) [1] [%] | reduction in viral load vs DMSO controls ([2]; test concentration 1 μM) | reduction in viral load vs DMSO controls ([2]; test concentration 3 μM) | reduction in viral load vs DMSO controls ([2]; test concentration 10 μM)
1 | COc1ccc(S(=O)(=O)N2CCN(c3nc(C)cc(Nc4ccc(C(F)(F)F)cc4)n3)CC2)cc1 [compound 40] | 91 | ++ | ++ | ++
2 | COc1ccc(S(=O)(=O)N2CCN(c3nc(C)cc(Nc4ccc(C#N)cc4)n3)CC2)cc1 [compound 42] | 69 |  |  | ++
